These compounds were tested against T1, IRAK4 (Homo sapiens, UniProt Q9NWZ3) (assay: IRAK4 degradation assay using the HiBiT Method). Conditions: 293T cells expressing HiBiT-tagged IRAK4; 6-hour incubation; Nano-Glo HiBiT Lytic Assay luminescence.
T1 construct: knocking-in a HiBiT fusion tag into the C-terminal of the IRAK4 gene in 293T cells; host or cells: 293T cells, knock-in of HiBiT at the endogenous IRAK4 locus
T1 sequence (Q9NWZ3 1-460): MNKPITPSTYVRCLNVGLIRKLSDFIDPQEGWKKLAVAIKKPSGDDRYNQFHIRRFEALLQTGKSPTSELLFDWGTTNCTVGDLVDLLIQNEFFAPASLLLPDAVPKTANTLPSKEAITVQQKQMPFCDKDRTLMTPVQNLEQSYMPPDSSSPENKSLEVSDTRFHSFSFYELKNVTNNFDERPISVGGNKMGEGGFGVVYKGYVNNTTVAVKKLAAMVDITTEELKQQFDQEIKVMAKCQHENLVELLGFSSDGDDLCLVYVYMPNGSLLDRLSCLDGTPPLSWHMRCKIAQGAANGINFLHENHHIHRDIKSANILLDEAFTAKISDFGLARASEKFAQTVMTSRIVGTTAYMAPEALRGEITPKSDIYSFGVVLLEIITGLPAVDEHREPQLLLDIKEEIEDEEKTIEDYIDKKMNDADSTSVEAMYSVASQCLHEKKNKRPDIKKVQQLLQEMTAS
Assay type: cell-based
Summary of the method: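 HEK293T cells with HiBiT knocked into the IRAK4 C-terminus, 10,000 cells per well, treated with an 11-point half-log series […] in duplicate for 6 hours at 37° C., 5% CO2. Remaining IRAK4 quantified by Nano-Glo HiBiT lytic luminescence against DMSO controls.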

Structure (SMILES)	DC50
CC(C)Oc1cc2nc([C@@H](Cc3ccccc3)NC(=O)CN3CCC(c4ccc(C5CCC(=O)NC5=O)cc4)CC3)cn2cc1NC(=O)c1cccc(C(F)(F)F)n1 (stereo partly drawn) [Example 78, N-[2-[(1R)-1-[[2-[4-[4-(2,6-dioxo-3-piperidyl)phenyl]-1-piperidyl]acetyl]amino]-2-phenyl-ethyl]-7-isopropoxy-imidazo[1,2-a]pyridin-6-yl]-6-(trifluoromethyl)pyridine-2-carboxamide]	500 to 1000 nM
CC(C)Oc1cc2nc(CC3CCN(C(=O)CN4CCC(c5ccc(C6CCC(=O)NC6=O)cc5)CC4)CC3)cn2cc1NC(=O)c1cccc(C(F)(F)F)n1 (stereo not shown) [Example 79, N-[2-[[1-[2-[4-[4-(2,6-dioxo-3-piperidyl)phenyl]-1-piperidyl]acetyl]-4-piperidyl]methyl]-7-isopropoxy-imidazo[1,2-a]pyridin-6-yl]-6-(trifluoromethyl)pyridine-2-carboxamide]	10 to 100 nM
CC(C)Oc1cc2nc(C3CCN(C(=O)C4CC5(CCCN5C(=O)c5ccc(OC6CCC(=O)NC6=O)cc5)C4)CC3)cn2cc1NC(=O)c1cccc(C(F)(F)F)n1 (stereo not shown) [Example 80, N-[2-[1-[5-[4-[(2,6-dioxo-3-piperidyl)oxy]benzoyl]-5-azaspiro[3.4]octane-2-carbonyl]-4-piperidyl]-7-isopropoxy-imidazo[1,2-a]pyridin-6-yl]-6-(trifluoromethyl)pyridine-2-carboxamide]	100 to 500 nM
CC(C)Oc1cc2nc(C3CCN(C(=O)CCC4CCN(C(=O)c5ccc(OC6CCC(=O)NC6=O)cc5)CC4)CC3)cn2cc1NC(=O)c1cccc(C(F)(F)F)n1 (stereo not shown) [Example 81, N-[2-[1-[3-[1-[4-[(2,6-dioxo-3-piperidyl)oxy]benzoyl]-4-piperidyl]propanoyl]-4-piperidyl]-7-isopropoxy-imidazo[1,2-a]pyridin-6-yl]-6-(trifluoromethyl)pyridine-2-carboxamide]	100 to 500 nM
CC(C)Oc1cc2nc(C3CCN(C(=O)c4ccccc4CNC(=O)c4ccc(OC5CCC(=O)NC5=O)cc4)CC3)cn2cc1NC(=O)c1cccc(C(F)(F)F)n1 (stereo not shown) [Example 82, N-[2-[1-[2-[[[4-[(2,6-dioxo-3-piperidyl)oxy]benzoyl]amino]methyl]benzoyl]-4-piperidyl]-7-isopropoxy-imidazo[1,2-a]pyridin-6-yl]-6-(trifluoromethyl)pyridine-2-carboxamide]	100 to 500 nM

Continued, values first:

DC50	Structure (SMILES)
100 to 500 nM	CC(C)Oc1cc2nc(C3CCN(C(=O)C4CCCC5(CCN(C(=O)c6ccc(OC7CCC(=O)NC7=O)cc6)CC5)O4)CC3)cn2cc1NC(=O)c1cccc(C(F)(F)F)n1 (stereo not shown) [Example 83, N-[2-[1-[9-[4-[(2,6-dioxo-3-piperidyl)oxy]benzoyl]-1-oxa-9-azaspiro[5.5]undecane-2-carbonyl]-4-piperidyl]-7-isopropoxy-imidazo[1,2-a]pyridin-6-yl]-6-(trifluoromethyl) pyridine-2-carboxamide]
500 to 1000 nM	CC(C)Oc1cc2nc(C3CCN(C(=O)C4CCN(C(=O)c5ccc(OC6CCC(=O)NC6=O)cc5)CC4)CC3)cn2cc1NC(=O)c1cccc(C(F)(F)F)n1 (stereo not shown) [Example 84, N-[2-[1-[1-[4-[(2,6-dioxo-3-piperidyl)oxy]benzoyl]piperidine-4-carbonyl]-4-piperidyl]-7-isopropoxy-imidazo[1,2-a]pyridin-6-yl]-6-(trifluoromethyl)pyridine-2-carboxamide]
100 to 500 nM	Cc1cc(N2CCN(C(=O)CN3CCC(c4cn5cc(NC(=O)c6cccc(C(F)(F)F)n6)c(OC(C)C)cc5n4)CC3)CC2)ccc1NC1CCC(=O)NC1=O (stereo not shown) [Example 85, N-[2-[1-[2-[4-[4-[(2,6-dioxo-3-piperidyl)amino]-3-methyl-phenyl]piperazin-1-yl]-2-oxo-ethyl]-4-piperidyl]-7-isopropoxy-imidazo[1,2-a]pyridin-6-yl]-6-(trifluoromethyl) pyridine-2-carboxamide]
100 to 500 nM	CC(C)Oc1cc2nc(C3CCN(CC(=O)N4CCC(Oc5ccc(NC6CCC(=O)NC6=O)cc5)CC4)CC3)cn2cc1NC(=O)c1cccc(C(F)(F)F)n1 (stereo not shown) [Example 86, N-[2-[1-[2-[4-[4-[(2,6-dioxo-3-piperidyl)amino]phenoxy]-1-piperidyl]-2-oxo-ethyl]-4-piperidyl]-7-isopropoxy-imidazo[1,2-a]pyridin-6-yl]-6-(trifluoromethyl)pyridine-2-carboxamide]
10 to 100 nM	Cc1cc(NC2CCC(=O)NC2=O)ccc1C1CCN(C(=O)CN2CCC(c3cn4cc(NC(=O)c5cccc(C(F)(F)F)n5)c(OC(C)C)cc4n3)CC2)CC1 (stereo not shown) [Example 87, N-[2-[1-[2-[4-[4-[(2,6-dioxo-3-piperidyl)amino]-2-methyl-phenyl]-1-piperidyl]-2-oxo-ethyl]-4-piperidyl]-7-isopropoxy-imidazo[1,2-a]pyridin-6-yl]-6-(trifluoromethyl) pyridine-2-carboxamide]
